# Laboratory results: PubChem BioAssay (NCI)
#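 A five-concentration, 48-hour dose response in 96-well plates underlies each endpoint, interpolated linearly between surrounding concentrations. TGI: concentration producing complete growth inhibition.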
# Columns and labels:
# Assay in all cases: DTP human tumour cell line panel, 48 h
# HS 578T breast = tested on: HS 578T breast
# SNB-19 CNS = tested on: SNB-19 CNS
# UACC-62 melanoma = tested on: UACC-62 melanoma
# OVCAR-5 ovarian = tested on: OVCAR-5 ovarian
# SR leukemia = tested on: SR leukemia
# NCI/ADR-RES ovarian = tested on: NCI/ADR-RES ovarian
# PC-3 prostate = tested on: PC-3 prostate
# HOP-62 NSCLC = tested on: HOP-62 NSCLC
# A498 renal = tested on: A498 renal
Compound,TGI (HS 578T breast),TGI (SNB-19 CNS),TGI (UACC-62 melanoma),TGI (OVCAR-5 ovarian),TGI (SR leukemia),TGI (NCI/ADR-RES ovarian),TGI (PC-3 prostate),TGI (HOP-62 NSCLC),TGI (A498 renal)
Cc1ccc2nc(-c3ccc(N4C(=O)C(Cl)C4c4ccc(Cl)cc4)cc3)sc2c1 (configuration not stated),66.8 µM,> 100 µM,31.3 µM,45.3 µM,57.9 µM,39.3 µM,36.8 µM,61.7 µM,–
CCOC(=O)CC(=O)Nc1cccc2[nH]cnc12,> 100 µM,> 100 µM,> 100 µM,> 100 µM,> 100 µM,> 100 µM,> 100 µM,> 100 µM,> 100 µM
CC(C)C(/C=C/c1ccc(Cl)c(Cl)c1)=N\NC(=O)N/N=C(/C=C/c1ccc(Cl)c(Cl)c1)C(C)C,> 100 µM,> 100 µM,> 100 µM,> 100 µM,> 100 µM,> 100 µM,> 100 µM,> 100 µM,> 100 µM
CCOP(=O)(OCC)C(C#N)Cc1ccco1 (configuration not stated),> 10 µM,> 10 µM,> 10 µM,> 10 µM,> 10 µM,> 10 µM,> 10 µM,> 10 µM,> 10 µM
O=c1c(=O)c2c(Br)sc(Br)c2c1=O,> 100 µM,> 100 µM,39.3 µM,39.8 µM,44.2 µM,> 100 µM,36.5 µM,> 100 µM,> 100 µM
CCOC(=O)/C(C#N)=C/c1ccnc2ccccc12,> 100 µM,> 100 µM,> 100 µM,> 100 µM,64.9 µM,52 µM,> 100 µM,> 100 µM,> 100 µM
FC(F)(F)c1cccc(-c2nc3ccccc3c3c2[C@@]2(N4CCCC4)CCCC[C@@H]32)c1,> 100 µM,> 100 µM,56.3 µM,> 100 µM,> 100 µM,> 100 µM,> 100 µM,> 100 µM,95.6 µM
Clc1ccc(C(SCc2ccccc2)SCc2ccccc2)cc1,> 10 µM,> 10 µM,> 10 µM,–,> 10 µM,> 10 µM,> 10 µM,> 10 µM,> 10 µM
O=[N+]([O-])c1cc2c(cc1/C=N/n1c(CO)nc3ccccc31)OCO2,> 100 µM,> 100 µM,> 100 µM,> 100 µM,–,> 100 µM,> 100 µM,> 100 µM,> 100 µM
C[N+]1(CCCl)CC[N+](C)(CCCl)CC1 (configuration not stated),> 100 µM,> 100 µM,> 100 µM,> 100 µM,–,> 100 µM,> 100 µM,> 100 µM,> 100 µM
CCCCCCCCCCCCCCCC(=O)N(CCCCCCCCCCC(=O)O)CC(O)C(O)C(OC1OC(CO)C(O)C(O)C1O)C(O)CO (configuration not stated),> 100 µM,52.9 µM,34.7 µM,> 100 µM,49.9 µM,61.1 µM,> 100 µM,75.8 µM,> 100 µM
CC[C@H]1C=CCC[C@@]2(C[C@@H]3CC[C@H]4[C@@H](C(=O)OCCCCCCCCCCCCCCCC(=O)N(CCCN)C[C@@H](O)CCN)[C@@]5(CCC[C@@H](C)O5)NC(=[N+]34)N2)O1,3.4 µM,–,3.5 µM,3.22 µM,3.78 µM,> 10 µM,3.1 µM,3.06 µM,6.62 µM
Cc1ccc(NC(=O)CSc2nc(=O)[nH]c3nc[nH]c23)cc1,> 100 µM,> 100 µM,> 100 µM,> 100 µM,> 100 µM,> 100 µM,> 100 µM,> 100 µM,89.9 µM
CCNC(=O)c1c(O)c2ccccc2[nH]c1=O,> 100 µM,> 100 µM,–,> 100 µM,> 100 µM,> 100 µM,> 100 µM,> 100 µM,> 100 µM
CCOC(=O)CNc1nc(=O)c2c(=O)oc(Cl)cc2o1,45.1 µM,> 100 µM,39.9 µM,38.7 µM,–,50.3 µM,26 µM,53.3 µM,38 µM
CC(=O)OC1COC(Nc2nc(NCc3ccccc3)n(C)c(=O)c2N=O)C(OC(C)=O)C1OC(C)=O (configuration not stated),> 10 µM,> 10 µM,> 10 µM,> 10 µM,–,> 10 µM,> 10 µM,> 10 µM,> 10 µM
C=C1C(=O)O[C@@H]2C=C(C)C3=CC(=O)[C@](C)(C[C@H](OC(=O)/C(C)=C\C)[C@@H]12)O3,17.7 µM,22.4 µM,2.06 µM,3.86 µM,0.786 µM,3.64 µM,5.01 µM,10.5 µM,–
N#Cc1c(-c2ccccc2)c(N=Nc2ccc(Cl)cc2)c(=O)n2c1[nH]c1ccccc12,–,> 100 µM,–,> 100 µM,–,> 100 µM,> 100 µM,> 100 µM,> 100 µM
O=CC12C3CCC1C2C(=O)C3 (configuration not stated),–,> 100 µM,> 100 µM,> 100 µM,> 100 µM,> 100 µM,> 100 µM,> 100 µM,–
CN(C)C(=O)OC(Cn1cncn1)(Cn1cncn1)c1ccc(Cl)cc1Cl,> 100 µM,> 100 µM,–,> 100 µM,–,> 100 µM,> 100 µM,> 100 µM,> 100 µM
COc1cc2cc(C(=O)N3CC(CCl)c4c3cc(N)c3ccccc43)[nH]c2c(OC)c1OC (configuration not stated),–,10.5 µM,< 0.01 µM,–,< 0.01 µM,< 0.01 µM,< 0.0114 µM,< 0.0109 µM,< 0.01 µM
Cc1csc(/N=C\c2c(O)c3ccccc3oc2=O)n1,94.5 µM,> 100 µM,> 100 µM,> 100 µM,–,> 100 µM,> 100 µM,–,–
Cc1ccc2oc(=O)c(C(=O)Nc3nc(C45CC6CC(CC(C6)C4)C5)cs3)cc2c1,> 100 µM,> 100 µM,–,> 100 µM,> 100 µM,> 100 µM,> 100 µM,> 100 µM,> 100 µM
CCOP(=O)(OCC)C(N)c1ccc(Cl)cc1 (configuration not stated),> 100 µM,> 100 µM,> 100 µM,> 100 µM,–,> 100 µM,> 100 µM,–,> 100 µM
